Test results published in US11179435B2, “Hangover alleviating composition containing conjugate of sesamol and peptide as active ingredient” (CAREGEN CO., LTD., priority 2017, dated 2021).
Starred links: 1 amine or outer side, 2 acyl side, 3 side chain; linkers in the order of their positions; H or OH if unused. No end group written: not given here. Suc = O=C(CCC(=O)[*:2])[*:1]

How the values were obtained:
Type in all cases: cell-based, human
[1] = test system: aldehyde dehydrogenase (ALDH); test: ALDH activity assay in HepG2 cells treated with conjugate; settings: 50 μM or 100 μM, 24 hours, compared to untreated control group
Protocol: Alcohol was converted to acetaldehyde by alcohol dehydrogenase (ADH), an alcohol degrading enzyme, and the converted acetaldehyde was converted and degraded to acetate by aldehyde dehydrogenase (ALDH). Therefore, in order to confirm the effect of increasing the activity of ALDH involved in the alcohol degradation process, liver carcinoma cells were treated with the two types of conjugates of the sesamol and the peptides prepared in [Preparation Example 2], respectively, and then the ALDH activity assay was performed.
Specifically, liver hepatocellular carcinoma (HepG2) cells, which were human liver carcinoma cells, were inoculated into a 6-well plate at a density of 4×10^5 cells/well and then incubated overnight. Thereafter, the two types of conjugates of the sesamol and the peptides prepared in [Preparation Example 2] were treated at a concentration of 50 μM or 100 μM, respectively, and incubated for 24 hours, and the cells were collected and then the ALDH activity was analyzed using an ALDH activity assay kit (abcam, ab155893). Meanwhile, a positive control group was treated with 5 μM sulfolaphane.
For the ALDH activity assay, each of the collected cells was treated with an ALDH activity assay buffer included in the kit, and then lysed with a homogenizer under ice. […] Thereafter, the ALDH activity was calculated using the following [Equation 1]. […]

[2] = test system: ALDH1; test: RT-PCR mRNA expression in HepG2 cells; settings: 10 μM or 50 μM, 6 hours, compared with untreated control group
Protocol: (§1) In order to confirm an effect of increasing the expression of ADH and ALDH involved in the alcohol degradation process, liver carcinoma cells were treated with the two types of conjugates of the sesamol and the peptides prepared in [Preparation Example 2], respectively, and then RT-PCR was performed.
(§2) Specifically, HepG2 cells were inoculated in a 6-well plate at a density of 4×10^5 cells/well, and then incubated overnight. Thereafter, the two types of conjugates of the sesamol and the peptides prepared in [Preparation Example 2] were treated at a concentration of 10 μM or 50 μM, respectively, and incubated for 6 hours, and the cells were collected. Thereafter, the total RNA was isolated from the collected cells according to a manufacturer's protocol using Trizol (Invitrogen, USA), and then 1 μg of the isolated RNA was synthesized to cDNA according to a manufacturer's protocol using a cDNA synthesis kit (Intron, Korea). The cDNA was subjected to PCR using primers shown in Table 2 below, and then electrophoresed on a 5% agarose gel to confirm mRNA expression levels of ADH4, ALDH1, and ALDH2.

[3] = test system: ADH4; test: RT-PCR mRNA expression in HepG2 cells; settings: 10 μM or 50 μM, 6 hours, compared with untreated control group
Protocol: as §1, §2

[4] = test system: ALDH2; test: RT-PCR mRNA expression in HepG2 cells; settings: 10 μM or 50 μM, 6 hours, compared with untreated control group
Protocol: as §1, §2

SEQ ID NO: 1: Sesamol linked via succinyl linker to the N-terminus of peptide SIPCKLQSG (SEQ ID NO: 1) ({sesamol-Suc}-SIPCKLQSG)
ALDH activity [1]: increased in a concentration-dependent manner | mRNA expression of ALDH1 [2]: significantly increased | mRNA expression of ADH4 [3]: significantly increased | mRNA expression of ALDH2 [4]: significantly increased
